Experimental findings from the OligoGym collection are described below.

HELM strings list units from the 5' end as sugar, base in round brackets, then linkage (d deoxyribose, r ribose, m 2'-O-methyl, p phosphodiester). Strings are as the collection lists them; they lack the last nucleoside at the 3' end of the tested compound. [moe] = 2'-O-(2-methoxyethyl) (MOE); [sp] = phosphorothioate linkage; [m5C] = 5-methylcytosine

The data set deals with SCN2A. The data set is described as follows: mouse, dose not given. Conditions: ASO.
“RNA1{[moe](G)[sp].[moe]([m5C])p.[moe]([m5C])p.[moe](A)p.d(T)[sp].d(T)[sp].d(T)[sp].d([m5C])[sp].d(T)[sp].d(A)[sp].d(T)[sp].d(A)[sp].d(A)[sp].d([m5C])[sp].[moe](T)p.[moe]([m5C])p.[moe](A)p.[moe](G)[sp].[moe]([m5C])}$$$$ (last 3' nucleoside missing)” had a 3 h FOB score of 0 score 0-7.
Under “RNA1{[moe]([m5C])[sp].[moe]([m5C])p.[moe](A)p.[moe]([m5C])p.[moe](G)p.[moe]([m5C])p.d(T)[sp].d(T)[sp].d(A)[sp].d([m5C])[sp].d(A)[sp].d(T)[sp].d([m5C])[sp].d(A)[sp].d(A)[sp].d(A)[sp].[moe]([m5C])p.[moe](A)[sp].[moe](T)}$$$$ (last 3' nucleoside missing)” stands 0 score 0-7.
In the case of “RNA1{[moe](G)[sp].[moe]([m5C])p.[moe](A)p.[moe](T)p.[moe](G)p.[moe](T)[sp].d(A)[sp].d(A)[sp].d([m5C])[sp].d([m5C])[sp].d(T)[sp].d(T)[sp].d(T)[sp].d(A)[sp].[moe](T)p.[moe](A)[sp].[moe]([m5C])}$$$$ (last 3' nucleoside missing)”, the 3 h FOB score amounted to 0.33 score 0-7.
Regarding “RNA1{[moe](G)[sp].[moe](G)p.[moe](A)p.[moe]([m5C])p.d([m5C])[sp].d(G)[sp].d(T)[sp].d([m5C])[sp].d(T)[sp].d([m5C])[sp].d(T)[sp].d(T)[sp].d(T)[sp].d([m5C])[sp].[moe](T)p.[moe](T)p.[moe](A)p.[moe](T)[sp].[moe](T)}$$$$ (last 3' nucleoside missing)”, the 3 h FOB score is 1 score 0-7.
In turn, “RNA1{[moe]([m5C])[sp].[moe](A)p.[moe](T)p.[moe](G)p.[moe](T)p.[moe](A)[sp].d(A)[sp].d([m5C])[sp].d([m5C])[sp].d(T)[sp].d(T)[sp].d(T)[sp].d(A)[sp].d(T)[sp].[moe](A)p.[moe]([m5C])[sp].[moe](A)}$$$$ (last 3' nucleoside missing)” displayed a 3 h FOB score of 0 score 0-7.
“RNA1{[moe]([m5C])[sp].[moe](A)p.[moe](T)p.[moe](G)p.[moe](T)p.[moe](A)p.d(A)[sp].d([m5C])[sp].d([m5C])[sp].d(T)[sp].d(T)[sp].d(T)[sp].d(A)[sp].d(T)[sp].d(A)[sp].d([m5C])[sp].[moe](A)p.[moe](T)[sp].[moe](T)}$$$$ (last 3' nucleoside missing)” gave a 3 h FOB score of 0 score 0-7.
Under “RNA1{[moe](T)[sp].[moe](T)p.[moe](T)p.[moe](G)p.[moe](G)p.d(G)[sp].d(T)[sp].d([m5C])[sp].d(T)[sp].d([m5C])[sp].d(T)[sp].d(T)[sp].d(A)[sp].d(G)[sp].d([m5C])[sp].[moe](T)p.[moe](T)p.[moe](T)[sp].[moe]([m5C])}$$$$ (last 3' nucleoside missing)” stands 3.33 score 0-7.
The value for “RNA1{[moe](A)[sp].[moe](T)p.[moe](G)p.[moe](T)p.[moe](A)p.d(A)[sp].d([m5C])[sp].d([m5C])[sp].d(T)[sp].d(T)[sp].d(T)[sp].d(A)[sp].d(T)[sp].d(A)[sp].d([m5C])[sp].[moe](A)p.[moe](T)p.[moe](T)[sp].[moe](T)}$$$$ (last 3' nucleoside missing)” was 0 score 0-7.
Take “RNA1{[moe](A)[sp].[moe]([m5C])p.[moe](T)p.[moe](G)p.[moe](G)p.d([m5C])[sp].d(T)[sp].d(A)[sp].d(T)[sp].d(A)[sp].d([m5C])[sp].d(T)[sp].d([m5C])[sp].d(A)[sp].d(T)[sp].[moe](T)p.[moe](G)p.[moe]([m5C])[sp].[moe](T)}$$$$ (last 3' nucleoside missing)”: the 3 h FOB score worked out at 1.33 score 0-7.
The value for “RNA1{[moe]([m5C])[sp].[moe](G)p.[moe](A)p.[moe](A)p.[moe](T)p.d(T)[sp].d([m5C])[sp].d(T)[sp].d(A)[sp].d(T)[sp].d(T)[sp].d(T)[sp].d(T)[sp].d(A)[sp].d(T)[sp].[moe](A)p.[moe](A)p.[moe](A)[sp].[moe](T)}$$$$ (last 3' nucleoside missing)” was 1.67 score 0-7.
